{"source": "ChEMBL document CHEMBL6178002", "about": "“Identification of a RANKL/TNF-α Dual-Inhibitor as a Potential Disease-Modifying Agent for the Treatment of Knee Osteoarthritis” (J Med Chem, 2025)", "key": {"[1]": {"experiment": "Half life in male Sprague-Dawley rat at 10 mg/kg, po measured for 0.25 to 24 hrs", "format": "ADME, organism-based", "conditions": "in vivo, time 0.25-24 hrs"}, "Primary chondrocyte [2]": {"tested_on": "Primary chondrocyte", "experiment": "Anti-inflammatory activity in IL-1beta-treated C57/BL6 mouse primary chondrocytes assessed as decrease in MMP-13 mRNA level at 10 uM incubated for 24 hrs by RT-qPCR analysis", "format": "functional, cell-based"}, "RAW264.7 [3]": {"tested_on": "RAW264.7", "experiment": "Anti-inflammatory activity in LPS-stimulated mouse RAW264.7 cells assessed as decrease in IL-18 level at 10 uM preincubated for 24 hrs followed by LPS addition measured after 2 hrs by RT-qPCR analysis", "format": "functional, cell-based", "conditions": "time 26.0 hrs"}, "Bone marrow macrophage [4]": {"tested_on": "Bone marrow macrophage", "experiment": "Inhibition of RANKL/M-CSF-induced osteoclastogenesis in bone marrow macrophage cells (unknown origin) assessed as decrease in MMP-9 level at 1 uM by Western blot analysis", "format": "functional, cell-based", "conditions": "time <= 5.0 day"}, "Bone marrow macrophage [5]": {"tested_on": "Bone marrow macrophage", "experiment": "Inhibition of RANKL/M-CSF-induced osteoclastogenesis in bone marrow macrophage cells (unknown origin) assessed as decrease in cathepsin K mRNA level incubated for 48 hrs by RT-qPCR analysis", "format": "functional, cell-based", "conditions": "dose <= 5.0 µM"}, "Bone marrow macrophage [6]": {"tested_on": "Bone marrow macrophage", "experiment": "Inhibition of RANKL/M-CSF-induced osteoclastogenesis in bone marrow macrophage cells (unknown origin) assessed as decrease in cathepsin K level at 1 uM by Western blot analysis", "format": "functional, cell-based", "conditions": "time <= 5.0 day"}, "[7]": {"experiment": "Inhibition of RANKL/M-CSF-induced osteoclastogenesis in male C57/BL6 mouse bone marrow cells at 1 uM incubated for 5 to 7 days by TRAP staining based analysis relative to control", "format": "functional", "conditions": "C57/BL6, Bone marrow cell, time 5-7 day"}, "Bone marrow cell [8]": {"tested_on": "Bone marrow cell", "experiment": "(§1) Inhibition of RANKL/M-CSF-induced osteoclastogenesis in male C57/BL6 mouse bone marrow cells incubated for 5 to 7 days by TRAP staining based analysis", "format": "functional", "conditions": "dose <= 5.0 µM, time 5-7 day"}, "[9]": {"experiment": "as §1", "format": "functional", "conditions": "bone marrow cell"}, "Bone marrow macrophage [10]": {"tested_on": "Bone marrow macrophage", "experiment": "Inhibition of RANKL/M-CSF-induced osteoclastogenesis in bone marrow macrophage cells (unknown origin) assessed as decrease in c-Fos level incubated for 48 hrs by Western blot analysis", "format": "functional, cell-based", "conditions": "dose <= 2.5 µM"}, "[11]": {"experiment": "Tmax in male Sprague-Dawley rat at 10 mg/kg, po measured for 0.25 to 24 hrs", "format": "ADME, organism-based", "conditions": "in vivo, time 0.25-24 hrs"}, "[12]": {"experiment": "Inhibition of RANKL/M-CSF-induced osteoclastogenesis in male C57/BL6 mouse bone marrow cells at 0.1 uM incubated for 5 to 7 days by TRAP staining based analysis relative to control", "format": "functional", "conditions": "C57/BL6, Bone marrow cell, time 5-7 day"}, "Bone marrow macrophage [13]": {"tested_on": "Bone marrow macrophage", "experiment": "Inhibition of RANKL/M-CSF-induced osteoclastogenesis in bone marrow macrophage cells (unknown origin) assessed as decrease in NFATC1 mRNA level at 1 uM by RT-qPCR analysis", "format": "functional, cell-based", "conditions": "time <= 5.0 day"}, "[14]": {"experiment": "Oral bioavailability in male Sprague-Dawley rat at 1 mg/kg, iv measured for 0.25 to 24 hrs", "format": "ADME, organism-based", "conditions": "in vivo, time 0.25-24 hrs"}, "[15]": {"target": "T1, Tumor necrosis factor ligand superfamily member 11 (Homo sapiens, UniProt O14788)", "T1 sequence (O14788 whole entry)": "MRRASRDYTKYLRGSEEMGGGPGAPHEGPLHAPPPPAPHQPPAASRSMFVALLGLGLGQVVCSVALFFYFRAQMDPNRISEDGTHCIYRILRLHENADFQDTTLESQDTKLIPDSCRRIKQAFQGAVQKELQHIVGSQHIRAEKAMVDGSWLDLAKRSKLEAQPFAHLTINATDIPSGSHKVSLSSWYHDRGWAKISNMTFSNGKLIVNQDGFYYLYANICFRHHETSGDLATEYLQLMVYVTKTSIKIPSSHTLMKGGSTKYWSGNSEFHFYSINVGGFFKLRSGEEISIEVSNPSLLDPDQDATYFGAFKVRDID", "experiment": "Binding affinity to CM5 chip-immobilized human RANKL assessed as dissociation constant by SPR analysis"}, "[16]": {"experiment": "AUC (0 to t) in male Sprague-Dawley rat at 10 mg/kg, po measured for 0.25 to 24 hrs", "format": "ADME, organism-based", "conditions": "in vivo, time 0.25-24 hrs"}, "Rattus norvegicus [17]": {"organism": "Rattus norvegicus", "experiment": "Anti-inflammatory activity in male Sprague-Dawley rat model of ACLT-induced osteoarthritis assessed as increase in BMD level at 50 to 100 ug, IART treated weekly once for 8 weeks by micro-CT analysis", "format": "functional, organism-based", "conditions": "dose 50-100 µg"}, "Primary chondrocyte [18]": {"tested_on": "Primary chondrocyte", "experiment": "Anti-inflammatory activity in IL-1beta-treated C57/BL6 mouse primary chondrocytes assessed as decrease in MMP-3 mRNA level at 10 uM incubated for 24 hrs by RT-qPCR analysis", "format": "functional, cell-based"}, "Rattus norvegicus [19]": {"organism": "Rattus norvegicus", "experiment": "Anti-inflammatory activity in male Sprague-Dawley rat model of ACLT-induced osteoarthritis assessed as increase in BV/TV level at 50 to 100 ug, IART treated weekly once for 8 weeks by micro-CT analysis", "format": "functional, organism-based", "conditions": "dose 50-100 µg"}, "Rattus norvegicus [20]": {"organism": "Rattus norvegicus", "experiment": "Anti-inflammatory activity in male Sprague-Dawley rat model of ACLT-induced osteoarthritis assessed as reduction in surface temperature in arthritic joint at 50 to 100 ug, IART treated weekly once for 8 weeks by infrared imaging analysis", "format": "functional, organism-based", "conditions": "dose 50-100 µg"}, "Bone marrow macrophage [21]": {"tested_on": "Bone marrow macrophage", "experiment": "Inhibition of RANKL/M-CSF-induced osteoclastogenesis in bone marrow macrophage cells (unknown origin) assessed as decrease in TRAP mRNA level at 1 uM by RT-qPCR analysis", "format": "functional, cell-based", "conditions": "time <= 5.0 day"}, "Bone marrow macrophage [22]": {"tested_on": "Bone marrow macrophage", "experiment": "Inhibition of RANKL/M-CSF-induced osteoclastogenesis in bone marrow macrophage cells (unknown origin) assessed as decrease in NFATC1 mRNA level incubated for 48 hrs by RT-qPCR analysis", "format": "functional, cell-based", "conditions": "dose <= 5.0 µM"}, "Tumor necrosis factor": {"target": "Tumor necrosis factor (Homo sapiens, UniProt P01375)", "sequence (P01375 whole entry)": "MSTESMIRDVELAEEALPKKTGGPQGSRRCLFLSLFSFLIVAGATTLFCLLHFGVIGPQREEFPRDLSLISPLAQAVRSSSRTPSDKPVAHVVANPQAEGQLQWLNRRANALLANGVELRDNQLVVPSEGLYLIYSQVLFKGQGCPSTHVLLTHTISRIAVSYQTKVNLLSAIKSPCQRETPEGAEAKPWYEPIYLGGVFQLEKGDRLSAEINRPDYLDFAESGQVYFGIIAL", "experiment": "Binding affinity to CM5 chip-immobilized human TNF-alpha assessed as dissociation constant by SPR analysis"}, "RAW264.7 [23]": {"tested_on": "RAW264.7", "experiment": "Inhibition of NFkappaB activation in mouse RAW264.7 cells assessed as reduction in TNF-alpha-induced NF-kappaB p65 phosphorylation at 10 uM preincubated for 12 hrs followed by TNF-alpha addition measured after 2 hrs by immunofluorescence based analysis", "format": "cell-based", "conditions": "time 14.0 hrs"}, "Bone marrow macrophage [24]": {"tested_on": "Bone marrow macrophage", "experiment": "Inhibition of RANKL/M-CSF-induced osteoclastogenesis in bone marrow macrophage cells (unknown origin) assessed as decrease in TRAP mRNA level incubated for 48 hrs by RT-qPCR analysis", "format": "functional, cell-based", "conditions": "dose <= 5.0 µM"}, "Primary chondrocyte [25]": {"tested_on": "Primary chondrocyte", "experiment": "Anti-inflammatory activity in IL-1beta-treated C57/BL6 mouse primary chondrocytes assessed as decrease in MMP-9 mRNA level at 10 uM incubated for 24 hrs by RT-qPCR analysis", "format": "functional, cell-based"}, "[26]": {"experiment": "Clearance in male Sprague-Dawley rat at 1 mg/kg, iv measured for 0.25 to 24 hrs", "format": "ADME, organism-based", "conditions": "in vivo, time 0.25-24 hrs"}, "Bone marrow macrophage [27]": {"tested_on": "Bone marrow macrophage", "experiment": "Inhibition of RANKL/M-CSF-induced osteoclastogenesis in bone marrow macrophage cells (unknown origin) assessed as decrease in c-Fos mRNA level incubated for 48 hrs by RT-qPCR analysis", "format": "functional, cell-based", "conditions": "dose <= 5.0 µM"}, "Bone marrow macrophage [28]": {"tested_on": "Bone marrow macrophage", "experiment": "Inhibition of RANKL/M-CSF-induced osteoclastogenesis in bone marrow macrophage cells (unknown origin) assessed as decrease in MMP-9 level incubated for 48 hrs by Western blot analysis", "format": "functional, cell-based", "conditions": "dose <= 2.5 µM"}, "Bone marrow cell [29]": {"tested_on": "Bone marrow cell", "experiment": "Inhibition of RANKL/M-CSF-induced osteoclastogenesis in male C57/BL6 mouse bone marrow cells assessed as decrease in F-actin loop formation incubated for 5 to 7 days by rhodamine phalloidin/DAPI staining based analysis", "format": "functional", "conditions": "dose <= 1.0 µM, time 5-7 day"}, "Bone marrow macrophage [30]": {"tested_on": "Bone marrow macrophage", "experiment": "Inhibition of RANKL/M-CSF-induced osteoclastogenesis in bone marrow macrophage cells (unknown origin) assessed as decrease in c-Fos level at 1 uM by Western blot analysis", "format": "functional, cell-based", "conditions": "time <= 5.0 day"}}, "note": "The source made the active and inactive calls. The rule behind the calls is not given here.", "data": [{"molecule": "Cc1cccc(C)c1NC(=O)[C@@H]1Cc2c([nH]c3ccccc23)C2(CN(c3ccccc3)C2)N1", "values": [{"measurement": "half-life", "setting": "[1]", "result": 5.07, "unit": "h"}, {"measurement": "Activity", "setting": "Primary chondrocyte [2]", "result": "Active"}, {"measurement": "Activity", "setting": "RAW264.7 [3]", "result": "Active"}, {"measurement": "inhibition", "setting": "Bone marrow macrophage [4]", "result": "Time-dependent-effect"}, {"measurement": "inhibition", "setting": "Bone marrow macrophage [5]", "result": "Dose-dependent-effect"}, {"measurement": "inhibition", "setting": "Bone marrow macrophage [6]", "result": "Time-dependent-effect"}, {"measurement": "inhibition at 1 µM", "setting": "[7]", "result": 98.6, "unit": "%"}, {"measurement": "inhibition", "setting": "Bone marrow cell [8]", "result": "Dose-dependent-effect"}, {"measurement": "IC50", "setting": "[9]", "result": 0.109, "unit": "µM"}, {"measurement": "inhibition", "setting": "Bone marrow macrophage [10]", "result": "Dose-dependent-effect"}, {"measurement": "Tmax", "setting": "[11]", "result": 0.5, "unit": "h"}, {"measurement": "inhibition at 0.1 µM", "setting": "[12]", "result": 59.7, "unit": "%"}, {"measurement": "inhibition", "setting": "Bone marrow macrophage [13]", "result": "Time-dependent-effect"}, {"measurement": "bioavailability", "setting": "[14]", "result": 71.4, "unit": "%"}, {"measurement": "Kd", "setting": "[15]", "result": 3.98, "unit": "µM"}, {"measurement": "AUC(0-t)", "setting": "[16]", "result": 1620, "unit": "ng·h/mL"}, {"measurement": "Activity", "setting": "Rattus norvegicus [17]", "result": "Active"}, {"measurement": "Activity", "setting": "Primary chondrocyte [18]", "result": "Active"}, {"measurement": "Activity", "setting": "Rattus norvegicus [19]", "result": "Active"}, {"measurement": "Activity", "setting": "Rattus norvegicus [20]", "result": "Active"}, {"measurement": "inhibition", "setting": "Bone marrow macrophage [21]", "result": "Time-dependent-effect"}, {"measurement": "inhibition", "setting": "Bone marrow macrophage [22]", "result": "Dose-dependent-effect"}, {"measurement": "Kd", "setting": "Tumor necrosis factor", "result": 18.6, "unit": "µM"}, {"measurement": "inhibition", "setting": "RAW264.7 [23]", "result": "Active"}, {"measurement": "inhibition", "setting": "Bone marrow macrophage [24]", "result": "Dose-dependent-effect"}, {"measurement": "Activity", "setting": "Primary chondrocyte [25]", "result": "Active"}, {"measurement": "clearance", "setting": "[26]", "result": 71.7, "unit": "mL/min/kg"}, {"measurement": "inhibition", "setting": "Bone marrow macrophage [27]", "result": "Dose-dependent-effect"}, {"measurement": "inhibition", "setting": "Bone marrow macrophage [28]", "result": "Dose-dependent-effect"}, {"measurement": "inhibition", "setting": "Bone marrow cell [29]", "result": "Dose-dependent-effect"}, {"measurement": "inhibition", "setting": "Bone marrow macrophage [30]", "result": "Time-dependent-effect"}]}]}
